This is an account of results in US20200031820A1, “3-CARBOXYLIC ACID PYRROLES AS NRF2 REGULATORS” (GLSXOSMITHKLINE INTELLECTUAL PROPERTY DEVELOPMENT LIMITED, priority 2016, published 2020).

This experiment concerns NQO1 specific enzyme activity in BEAS-2B cells (marker for NRF2 activation). Kind of experiment: Beas2B NQO1 MTT Assay. Type of experiment: cell-based. The settings on record: Homo sapiens, NQO1 specific activity induction, 48 hours with compound. From the text: NAD(P)H:quinone oxidoreductase 1 (NQO1), also called DT diaphorase, is a homodimeric FAD-containing enzyme that catalyses obligatory NAD(P)H-dependent two-electron reductions of quinones and protects cells against the toxic and neoplastic effects of free radicals and reactive oxygen species arising from one-electron reductions. The transcription of NQO1 is finely regulated by NRF2, and thus NQO1 activity is a good marker for NRF2 activation. On day one, frozen BEAS-2B cells (ATCC) were thawed in a water bath, counted, and re-suspended at a concentration of 250,000 cells/mL. Fifty microliters of cells were plated in 384 well black clear-bottomed plates. Plates were incubated at 37° C., 5% CO2 overnight. On day two, plates were centrifuged and 50 nL of compound or controls were added to the cells. Plates were then incubated at 37° C., 5% CO2 for 48 hours. On day four, medium was aspirated from the plate and crude cell lysates were made by adding 13 uL of 1× Cell Signaling Technologies lysis buffer with 1 Complete, Mini, EDTA-free Protease Inhibitor Tablet (Roche) for each 10 mL of lysis buffer. After lysis plates were incubated for 20 minutes at room temperature. Two microliters of lysate were removed for use in Cell Titer Glo assay (Promega) and MTT cocktail was prepared (Prochaska et. al. 1998) for measurement of NQO1 activity. Fifty microliters of MTT cocktail was added to each well, plate was centrifuged, and analysed on an Envision plate reader (Perkin Elmer) using Absorbance 570 nm label for 30 minutes. Product formation was measured kinetically and the pEC50 of NQO1 specific activity induction was calculated by plotting the change in absorbance (Delta OD/min) versus the log of compound concentration followed by 3-parameter fitting.
EC50s <1 nM (+++++), EC50s 10 nM-1 nM (++++), EC50s 10-100 nM (+++), EC50s 100 nM-1 μM (++), EC50s 1-10 μM (+), EC50s >10 μM (−), or were not determined (ND).
`C[C@H]1Cc2ccc(C(F)(F)F)cc2S(=O)(=O)N(Cc2cccc(-n3ccc(C(=O)O)c3[C@@H]3C[C@H]3c3cn(C)nn3)c2)C1` [Example 4, 1-(3-(((S)-4-methyl-1,1-dioxido-8-(trifluoromethyl)-4,5-dihydrobenzo[f][1,2]thiazepin-2(3H)-yl)methyl)phenyl)-2-((1R,2R)-2-(1-methyl-1H-1,2,3-triazol-4-yl)cyclopropyl)-1H-pyrrole-3-carboxylic acid]: the EC50 (in general, the concentration giving half of the maximal effect) fell in the range of 1 to 10 nM.
Consider `CCC[C@@H]1CCCCN1C(=O)c1cccc(-c2cccc(-n3ccc(C(=O)O)c3[C@@H]3C[C@H]3c3cn(C)nn3)c2)c1F` [Example 16, 1-(2′-fluoro-3′-((R)-2-propylpiperidine-1-carbonyl)-[1,1′-biphenyl]-3-yl)-2-((1R,2R)-2-(1-methyl-1H-1,2,3-triazol-4-yl)cyclopropyl)-1H-pyrrole-3-carboxylic acid], for which the EC50 lay within 1 to 10 nM.
Consider `C[C@H](Oc1cccc(-c2cccc(-n3ccc(C(=O)O)c3[C@@H]3C[C@H]3c3cn(C)nn3)c2)c1)C1CCCCC1` [Example 18, 1-(3′-((S)-1-cyclohexylethoxy)-[1,1′-biphenyl]-3-yl)-2-((1R,2R)-2-(1-methyl-1H-1,2,3-triazol-4-yl)cyclopropyl)-1H-pyrrole-3-carboxylic acid], for which the EC50 fell in the range of 10 to 100 nM.
